IC50 data for 46 compounds are collected here from US20080194546A1, “Pyrido-, Pyrazo- and Pyrimido-Pyrimidine Derivatives as mTOR Inhibitors” (KuDOS Pharmaceuticals Limited, priority 2005, published 2008).

The target of one assay is recombinant mTOR (FLAG-tagged, amino acid residues 1362 to 2549) (Homo sapiens, UniProt P42345). Nature of the assay: Alternative Enzyme Assay: AlphaScreen, inhibition of phosphorylation by recombinant mTOR. In kind it is biochemical. Conditions: Alternative Enzyme Assay, upper bounds; read-out: IC50 values against mTOR. On the technique in general: Alpha assays give light when donor and acceptor beads are brought close together.
Chain of recombinant mTOR (FLAG-tagged, amino acid residues 1362 to 2549) (P42345 1362-2549): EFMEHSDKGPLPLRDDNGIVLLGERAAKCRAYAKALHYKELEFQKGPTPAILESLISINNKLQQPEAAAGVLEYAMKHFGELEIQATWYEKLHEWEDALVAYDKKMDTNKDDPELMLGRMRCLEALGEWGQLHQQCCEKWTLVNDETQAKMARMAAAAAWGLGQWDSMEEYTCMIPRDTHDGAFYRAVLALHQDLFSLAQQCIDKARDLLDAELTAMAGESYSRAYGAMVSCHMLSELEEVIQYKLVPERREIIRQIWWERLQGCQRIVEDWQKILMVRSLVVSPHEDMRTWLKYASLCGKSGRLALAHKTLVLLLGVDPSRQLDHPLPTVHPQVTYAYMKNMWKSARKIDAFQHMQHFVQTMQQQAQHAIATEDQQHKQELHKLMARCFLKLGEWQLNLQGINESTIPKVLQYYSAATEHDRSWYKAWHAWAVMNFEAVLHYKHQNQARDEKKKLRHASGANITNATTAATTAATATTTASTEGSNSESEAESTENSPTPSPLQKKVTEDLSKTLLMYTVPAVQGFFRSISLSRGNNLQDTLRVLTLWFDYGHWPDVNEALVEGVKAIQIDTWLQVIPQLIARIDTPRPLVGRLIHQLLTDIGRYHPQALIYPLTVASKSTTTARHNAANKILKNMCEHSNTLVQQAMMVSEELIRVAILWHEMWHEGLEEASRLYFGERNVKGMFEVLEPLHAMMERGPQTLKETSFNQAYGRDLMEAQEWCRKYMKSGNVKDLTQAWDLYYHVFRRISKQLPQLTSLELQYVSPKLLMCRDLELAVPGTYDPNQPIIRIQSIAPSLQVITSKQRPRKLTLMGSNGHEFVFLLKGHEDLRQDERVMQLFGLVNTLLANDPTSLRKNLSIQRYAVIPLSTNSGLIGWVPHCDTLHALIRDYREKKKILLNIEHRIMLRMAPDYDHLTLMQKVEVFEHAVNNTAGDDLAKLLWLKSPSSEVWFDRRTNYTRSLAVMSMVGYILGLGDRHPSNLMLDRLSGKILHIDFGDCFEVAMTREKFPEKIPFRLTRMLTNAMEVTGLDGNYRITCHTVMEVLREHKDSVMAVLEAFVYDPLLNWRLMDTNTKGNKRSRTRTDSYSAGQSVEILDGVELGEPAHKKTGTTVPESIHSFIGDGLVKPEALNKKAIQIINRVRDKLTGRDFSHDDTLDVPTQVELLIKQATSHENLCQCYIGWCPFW
In the case of `C[C@@H]1CN(c2nc(N3CCOCC3)c3ccc(-c4ccc(OCC(C)(C)C)cc4)nc3n2)C[C@H](C)O1` [Example 1bo], the IC50 (usually the concentration that gives 50% inhibition) was less than 1 µM. On the same count and under the same terms, as for `O=Cc1cccc(-c2nc(N3CCOCC3)c3ccc(-c4ccc(Cl)cc4)nc3n2)c1` [Example 9w], the figure is less than 10 µM.

The assay is the same for the next values; noted with them: Alternative Enzyme Assay; read-out: IC50 values against mTOR.
Regarding `C[C@@H]1CN(c2nc(N3CCOCC3)c3ccc(-c4ccc(OCc5ccccc5)cc4)nc3n2)C[C@H](C)O1` [Example 1bf], the concentration for half-maximal inhibition (IC50) was less than 0.3 µM.

Another assay concerns phosphorylation of Serine 473 in Akt in MDA-MB-468 cells. Nature of the assay: In Vitro phospho-Ser473 Akt Assay (Acumen Explorer). The settings on record: Homo sapiens, MDA-MB-468, read-out: IC50 values against mTOR (phospho-Ser473 Akt assay). In kind it is cell-based.
With `C[C@H]1COCCN1c1nc(N2CCOC[C@@H]2C)c2ccc(-c3cccc(C#N)c3)nc2n1` [Example 11aw], the IC50 is less than 11 µM. As for `CC(C)C(=O)NCc1cccc(-c2ccc3c(N4CCOC[C@@H]4C)nc(N4CCOC[C@@H]4C)nc3n2)c1` [Example 15d], the IC50 is less than 11 µM. The same measure, in the same setting: as for `COc1ccc(-c2ccc3c(N4CCOC[C@@H]4C)nc(N4CCN(CCO)CC4)nc3n2)cc1CO` [Example 28ci], the figure is less than 0.3 µM; as for `COc1ccc(-c2ccc3c(N4CCOC[C@@H]4C)nc(N4CCC5CCCCC5C4)nc3n2)cc1CO` (stereo partly shown) [Example 28ag], less than 11 µM. For the compound `CNc1nc(N2CCOC[C@@H]2C)c2ccc(-c3ccc(OC)c(CO)c3)nc2n1` [28 bp], the IC50 was less than 11 µM. On the same count and under the same terms, as for `COc1ccc(-c2ccc3c(N4CCOC[C@@H]4C)nc(N4CCCC(c5ccccc5)C4)nc3n2)cc1CO` (stereo partly shown) [Example 28j], the figure is less than 11 µM; as for `COc1ccc(-c2ccc3c(N4CCOC[C@@H]4C)nc(N4CCC(N5CCCCC5)CC4)nc3n2)cc1CO` [Example 28z], less than 11 µM; as for `COc1ccc(-c2ccc3c(N4CCOC[C@@H]4C)nc(-c4cccc(C(F)(F)F)c4)nc3n2)cc1CO` [Example 29m], less than 11 µM. Still for that read-out and setting: then `COC(=O)c1cccc(-c2nc(N3CCOC[C@@H]3C)c3ccc(-c4ccc(OC)c(CO)c4)nc3n2)c1` [Example 29h], with less than 11 µM; and `COC(=O)c1cncn1-c1nc(N2CCOC[C@@H]2C)c2ccc(-c3ccc(OC)c(CO)c3)nc2n1` [Example 28az], with less than 11 µM. As to `C[C@H]1COCCN1c1nc(N2CCOC[C@@H]2C)c2ccc(-c3ccc(CNC4CC4)o3)nc2n1` [Example 17e], the IC50 was less than 11 µM. On the same count and under the same terms, as for `C[C@H]1COCCN1c1nc(N2CCOC[C@@H]2C)c2ccc(-c3cccc(CS(C)(=O)=O)c3)nc2n1` [Example 14t], the figure is less than 11 µM.

With `COc1ccc(-c2ccc3c(N4CCOC[C@@H]4C)nc(-c4cccc([N+](=O)[O-])c4)nc3n2)cc1CO` [Example 29i], the IC50 is less than 11 µM.

Consider `C[C@H]1COCCN1c1nc(N2CCOC[C@@H]2C)c2ccc(-c3ccc(F)c(CNCCF)c3)nc2n1` [Example 14ab], for which the IC50 was less than 11 µM.

In the case of `COc1ccc(-c2ccc3c(N4CCOC[C@@H]4C)nc(NCCN(C)C)nc3n2)cc1CO` [Example 28cb], the IC50 is less than 11 µM. The same measure, in the same setting: as for `C[C@H]1COCCN1c1nc(N2CCOC[C@@H]2C)c2ccc(-c3ccc4nc[nH]c(=O)c4c3)nc2n1` [Example 11cl], the figure is less than 11 µM; as for `C[C@H]1COCCN1c1nc(N2CCCC(CO)C2)nc2nc(-c3cccc(C(N)=O)c3)ccc12` (stereo partly shown) [Example 12d], less than 11 µM. On the same count and under the same terms, as for `C[C@H]1COCCN1c1nc(N2CCOC[C@@H]2C)c2ccc(-c3ccncc3)nc2n1` [Example 11ar], the figure is less than 11 µM; as for `CC(=O)N(C)Cc1ccc(-c2ccc3c(N4CCOC[C@@H]4C)nc(N4CCOC[C@@H]4C)nc3n2)cc1` [Example 15r], less than 11 µM; as for `C[C@H]1COCCN1c1nc(N2CCOC[C@@H]2C)c2ccc(-c3ccnc(F)c3)nc2n1` [Example 11au], less than 11 µM.

For the compound `C[C@H]1COCCN1c1nc(N2CCOC[C@@H]2C)c2ccc(-c3cccc(C(=O)N4CCN(C)CC4)c3)nc2n1` [Example 11bf], the IC50 was less than 11 µM.

Turning to `COc1ccc(-c2ccc3c(N4CCOC[C@@H]4C)nc(Nc4ccncn4)nc3n2)cc1CO` [Example 28n], the IC50 was less than 11 µM. The same measure, in the same setting: then `C[C@H]1COCCN1c1nc(N2CCOC[C@@H]2C)c2ccc(-c3ccc(F)c(CNC(=O)C(F)(F)F)c3)nc2n1` [Example 15z], with less than 11 µM; and `C[C@H]1COCCN1c1nc(N2CCOC[C@@H]2C)c2ccc(-c3cccnc3)nc2n1` [Example 11bu], with less than 11 µM. On the same count and under the same terms, as for `COc1ccc(-c2ccc3c(N4CCOC[C@@H]4C)nc(NC(C)CN(C)C)nc3n2)cc1CO` (stereo partly shown) [Example 28ct], the figure is less than 11 µM; as for `C[C@H]1CCCCN1c1nc(N2CCOC[C@@H]2C)c2ccc(-c3ccc(Cl)cc3)nc2n1` [Example 28de], less than 11 µM; as for `C[C@H]1COCCN1c1nc(N2CCC(c3ccncc3)CC2)nc2nc(-c3ccc(N)nc3)ccc12` [Example 12e], less than 11 µM. `C[C@H]1COCCN1c1nc(N2CCOC[C@@H]2C)c2ccc(-c3ccc(F)c(CNC(=O)C4CCC4)c3)nc2n1` [Example 15x]: the IC50 is less than 11 µM. The same measure, in the same setting: then `COc1ccc(-c2ccc3c(N4CCOC[C@@H]4C)nc(-c4cccc(CN)c4)nc3n2)cc1CO` [Example 29e], with less than 11 µM; and `C[C@H]1COCCN1c1nc(N2CCOC[C@@H]2C)c2ccc(-c3ccc(CNc4cc[nH]n4)o3)nc2n1` [Example 17i], with less than 11 µM. For `COCC(=O)NCc1cc(-c2ccc3c(N4CCOC[C@@H]4C)nc(N4CCOC[C@@H]4C)nc3n2)ccc1F` [Example 15u], the IC50 was less than 11 µM. Still for that read-out and setting: as for `COc1ccc(-c2ccc3c(N4CCOC[C@@H]4C)nc(N4CCC(N5CCCC5)CC4)nc3n2)cc1CO` [Example 28ai], the figure is less than 11 µM; as for `COc1ccc(-c2ccc3c(N4CCOC[C@@H]4C)nc(NCCO)nc3n2)cc1CO` [Example 28bs], less than 11 µM; as for `C[C@@H]1CN(c2nc(N3CCOC[C@@H]3C)c3ccc(-c4ccccc4)nc3n2)C[C@H](C)O1` [Example 11j], less than 0.3 µM.

As for `COCCN(C)Cc1cc(-c2ccc3c(N4CCOC[C@@H]4C)nc(N4CCOC[C@@H]4C)nc3n2)ccc1F` [Example 14aj], the concentration for half-maximal inhibition (IC50) is less than 11 µM. The same measure, in the same setting: as for `CCOc1nc(N2CCOC[C@@H]2C)c2ccc(-c3ccc(OC)c(CO)c3)nc2n1` [Example 28cv], the figure is less than 11 µM. For the compound `COC(=O)[C@@H]1C[C@@H](O)CN1c1nc(N2CCOC[C@@H]2C)c2ccc(-c3ccc(OC)c(CO)c3)nc2n1` [Example 28aa], the IC50 was less than 11 µM.

For `COCc1cccc(-c2nc(N3CCOC[C@@H]3C)c3ccc(-c4ccc(OC)c(CO)c4)nc3n2)c1` [Example 29l], the IC50 is less than 11 µM. With `C[C@H]1COCCN1c1nc(N2CCOC[C@@H]2C)c2ccc(-c3cccc(C(=O)N4CC[C@@H](O)C4)c3)nc2n1` [Example 13g], the IC50 was less than 11 µM. With `COc1cncc(-c2nc(N3CCOC[C@@H]3C)c3ccc(-c4cccc(CO)c4)nc3n2)c1` [Example 29s], the IC50 is less than 11 µM.

Staying with this assay, now noted: Homo sapiens; MDA-MB-468 cells, 2 hours; read-out: IC50, phospho-Ser473 Akt assay (cellular IC50, measured by pAkt).
As to `C[C@H]1COCCN1c1nc(N2CCOC[C@@H]2C)c2ccc(-c3ccc4c(c3)C(=O)NCCN4)nc2n1` [Example 11df, 7-[2,4-bis-((S)-3-methyl-morpholin-4-yl)-pyrido[2,3-d]pyrimidin-7-yl]-1,2,3,4-tetrahydro-benzo[e][1,4]diazepin-5-one], the IC50 was found to be 0.381 µM.

On to `CNC(=O)C1CCN(c2nc(N3CCOC[C@@H]3C)c3ccc(-c4ccc(N)nc4)nc3n2)CC1` [Example 28dk], for which the IC50 was found to be 0.682 µM. Same read-out and setting: as for `C[C@H]1COCCN1c1nc(N2CCOC[C@@H]2C)c2ccc(-c3cccc(N)c3)nc2n1` [Example 11dr, 3-[2,4-Bis-((S)-3-methyl-morpholin-4-yl)-pyrido[2,3-d]pyrimidin-7-yl]-phenylamine], the figure is 0.0141 µM.
